Experiments:
myotonic Cav1.1^Δe29 EDL = assay: Myotonia, ex vivo EDL incubated with 9-AC; parameters: species or system mouse
[1] = system: Cav1.1^Δe29/ClC-1^−/− mice; assay: Whole body plethysmography in Cav1.1^Δe29/ClC-1^−/− mice; type: in vivo, mouse
Method: Whole body plethysmography (Buxco® Small Animal Whole Body Plethysmography, Data Science Internation) was used to measure respiratory function at 10 weeks (all groups) and 20 weeks (excluding untreated Cav1.1^Δe29/ClC-1^−/−). Mice were acclimated to the system for two days, with data being collected on day three. […] Average data from the 10-minute acquisition period for frequency (Breath/min) and tidal volume (mL) were analyzed for statistics by one-way ANOVA with multiple comparisons.

[2] = system: Cav1.1^Δe29+9-AC EDL muscle; assay: Transient weakness, ex vivo EDL made myotonic with 9-AC; parameters: initial force generation drop: dose or concentration left out as unconfirmed; conditions: for transient weakness: 20-wk mice
[3] = system: diaphragm strip of Cav1.1^Δe29/ClC-1^−/− mice; assay: In vitro muscle contraction of diaphragm strips isolated from long-term orally treated mice (no drug in bath); type: in vivo, mouse
[4] = system: WT and Cav1.1^Δe29 EDLs (no 9AC); assay: Myotonia protocol, ex vivo EDL without 9-AC; parameters: species or system mouse; conditions: 10 mM amlodipine in the bath
[5] = system: Cav1.1^Δe29/ClC-1^−/− mice; assay: Time of righting reflex in Cav1.1^Δe29/ClC-1^−/− mice; type: in vivo, mouse
Method: Mice were held in a supine position on a level surface and then released. Two persons began timing immediately after release, and timing was stopped once all four paws were down on the surface. This was repeated for a total of 10 timed righting responses with a minimum of five minutes in between each recording to avoid myotonic warm-up. Recordings less than a second were recorded as “1,” and righting was considered a failure if righting took more than 60 seconds. If failure was reached, no further recordings were measured for that mouse for that week. The two longest and two shortest recording for each mouse was removed, and the average of the middle 6 recordings were used for analysis. Two-way ANOVA on the week-to-week results and one-way ANOAV with multiple comparisons for the timepoint data (10-week and 20-week) were performed.

[6] = system: EDL muscle of Cav1.1^Δe29/ClC-1^−/− mice; assay: In vitro muscle contraction of EDL isolated from long-term orally treated mice (no drug in bath); type: in vivo, mouse; conditions: 20-weeks-of-age, amlodipine treatment
myotonic WT EDL = assay: Myotonia, ex vivo EDL incubated with 9-AC; parameters: species or system mouse
[7] = system: Cav1.1^Δe29/ClC-1^−/− mice; assay: Body weight measurements in Cav1.1^Δe29/ClC-1^−/− mice; type: in vivo, mouse
Method: Mice were provided food cups immediately after weaning, and food was changed daily. No other food source was given, but water was provided and changed weekly along with cages.
Body weight of the mice was measured every other day following weaning to the end of terminal experimentation. For statistical analysis, two-way ANOVA was performed on the average of each week's measurements. Percent body weight change at 10 weeks was determined with the first weight measurement taken post-weaning, and the body weight reached at 10 weeks.

WT+9-AC EDL muscle = assay: Transient weakness, ex vivo EDL made myotonic with 9-AC; conditions: in bath, 20-wk mice
[8] = system: non-myotonic and myotonic WT and Cav1.1^Δe29 mouse muscle; assay: Peak contraction force of non-myotonic and myotonic ex vivo EDL, drug in bath; conditions: 5 mM and 20 mM verapamil in bath, with or without 100 mM 9-AC; 20-wk mice
[9] = 20-weeks of age, amlodipine treated vs WT
[10] = 5 mg/kg/day amlodipine vs untreated

For `CCOC(=O)C1=C(COCCN)NC(C)=C(C(=O)OC)C1c1ccccc1Cl` (racemic) [amlodipine, (RS)-3-ethyl 5-methyl 2-[(2-aminoethoxy)methyl]-4-(2-chlorophenyl)-6-methyl-1,4-dihydropyridine-3,5-dicarboxylate], the myotonia (myotonic Cav1.1^Δe29 EDL; 10 mM amlodipine) was “reduction in the myotonia”, the “myotonia, difference between WT and Cav1.1^Δe29, first tetanus” value (myotonic Cav1.1^Δe29 EDL; 10 mM amlodipine) was “significant difference” and the “myotonia, difference between WT and Cav1.1^Δe29, following tetani” value (myotonic Cav1.1^Δe29 EDL; 10 mM amlodipine, 100 mM 9-AC) was “no difference”. The minute ventilation ([1]; 10-week, amlodipine treated vs untreated) was “not improved”, the frequency of respiration ([1]; 10-weeks, 5 mg/kg/day amlodipine) was “reduction in the frequency” and the “frequency of respiration compared to WT” value [1, 9] was “not significantly different”. For the same compound, the “minute ventilation compared to WT” value [1, 9] was “significant reduction”, the respiratory function overall ([1]; amlodipine treatment) was “moderately impacted” and the “initial force generation drop” value ([2]; 10 mm amlodipine in the bath) was “improved”. The transient weakness ([2]; 10 mm amlodipine in the bath) was “improvement to transient weakness”, the “muscle function and muscle force generation in diaphragm” value ([3]; 20-weeks-of-age, amlodipine treatment) was “not a significant impact” and the “diaphragm force reduction at 150 Hz and in frequency dependence protocol, compared to ClC-1^−/− alone mice” value ([3]; 20-wk, amlodipine treated) was “comparable”. For the same compound, the “diaphragm strip force generation compared to WT diaphragm” value ([3]; 20-wk, amlodipine treated vs WT) was “force generation reduction”, the “myotonia (integration normalized to specific force) without 9AC” value [4] was “has no affect” and the “time of righting reflex, week-to-week, compared to ClC-1^−/− alone mice” value ([5]; 5 mg/kg/day amlodipine) was “no significant difference in righting”. For the same compound, the “average time of righting reflex compared to WT mice” value ([5]; 5 mg/kg/day amlodipine vs WT) was “not a significant difference in time of righting”, the “average time of righting reflex at 10- and 20-week of age” value [5, 10] was “significantly improve time of righting” and the “time of righting reflex, weekly” value [5, 10] was “significantly improves time of righting”. The “muscle function and muscle force generation in EDL” value [6] was “not a significant impact”, the myotonia (myotonic WT EDL; 10 mM amlodipine) was “reduced myotonia” and the “percent body weight change compared to WT” value ([7]; 5 mg/kg/day amlodipine vs WT) was “not significantly different”. The “percent body weight change from weaning at 10 weeks” value [7, 10] was “significant improvement”.

In the case of `COc1ccc(CCN(C)CCCC(C#N)(c2ccc(OC)c(OC)c2)C(C)C)cc1OC` (racemic) [verapamil, (RS)-2-(3,4-Dimethoxyphenyl)-5-{[2-(3,4-dimethoxyphenyl)ethyl]-(methyl)amino}-2-prop-2-ylpentanenitrile], the transient weakness ([2]; 5 mM verapamil, in bath) is reported as “improve transient weakness”, the transient weakness ([2]; 20 um verapamil, in bath) is reported as “significant and robust” and the transient weakness (WT+9-AC EDL muscle; 5 mM verapamil) is reported as “improve transient weakness”. The transient weakness (WT+9-AC EDL muscle; 20 mM verapamil) was “improve transient weakness” and the peak contraction force [8] was “does not reduce peak contraction force”.

`COC(=O)C1=C(C)NC(C)=C(C(=O)OC)C1c1ccccc1[N+](=O)[O-]` [nifedipine, 3,5-dimethyl 2,6-dimethyl-4-(2-nitrophenyl)-1,4-dihydropyridine-3,5-dicarboxylate] was tested, and the myotonia (myotonic Cav1.1^Δe29 EDL; 75 nM nifedipine) was “reduction in the myotonia”, the “initial drop in force generation between the first and second tetani” value ([2]; 10 mM nifedipine) was “improved” and the transient weakness ([2]; 10 mM nifedipine in the bath) was “significant improvement in transient weakness”. The myotonia (myotonic WT EDL; 75 nM nifedipine) was “reduced myotonia”.

— patent US20250032443A1, “TREATMENT OF MYOTONIC DISORDERS” (University of Rochester, priority 2021, published 2025)
